How the values were obtained:
[1] = target: T1, full-length, N-terminal, 6His-tagged KSP (Homo sapiens, UniProt P52732); assay: In vitro enzymatic ATPase assay (ADP-Glo), MT-stimulated activity; assay type: biochemical; conditions: concentrations up to 250 μM, mean ± SD
T1 construct: IC50 values for CW069 and 3 against full-length, N-terminal, 6His-tagged HSET and KSP; made in house
T1 sequence (P52732 1-1056): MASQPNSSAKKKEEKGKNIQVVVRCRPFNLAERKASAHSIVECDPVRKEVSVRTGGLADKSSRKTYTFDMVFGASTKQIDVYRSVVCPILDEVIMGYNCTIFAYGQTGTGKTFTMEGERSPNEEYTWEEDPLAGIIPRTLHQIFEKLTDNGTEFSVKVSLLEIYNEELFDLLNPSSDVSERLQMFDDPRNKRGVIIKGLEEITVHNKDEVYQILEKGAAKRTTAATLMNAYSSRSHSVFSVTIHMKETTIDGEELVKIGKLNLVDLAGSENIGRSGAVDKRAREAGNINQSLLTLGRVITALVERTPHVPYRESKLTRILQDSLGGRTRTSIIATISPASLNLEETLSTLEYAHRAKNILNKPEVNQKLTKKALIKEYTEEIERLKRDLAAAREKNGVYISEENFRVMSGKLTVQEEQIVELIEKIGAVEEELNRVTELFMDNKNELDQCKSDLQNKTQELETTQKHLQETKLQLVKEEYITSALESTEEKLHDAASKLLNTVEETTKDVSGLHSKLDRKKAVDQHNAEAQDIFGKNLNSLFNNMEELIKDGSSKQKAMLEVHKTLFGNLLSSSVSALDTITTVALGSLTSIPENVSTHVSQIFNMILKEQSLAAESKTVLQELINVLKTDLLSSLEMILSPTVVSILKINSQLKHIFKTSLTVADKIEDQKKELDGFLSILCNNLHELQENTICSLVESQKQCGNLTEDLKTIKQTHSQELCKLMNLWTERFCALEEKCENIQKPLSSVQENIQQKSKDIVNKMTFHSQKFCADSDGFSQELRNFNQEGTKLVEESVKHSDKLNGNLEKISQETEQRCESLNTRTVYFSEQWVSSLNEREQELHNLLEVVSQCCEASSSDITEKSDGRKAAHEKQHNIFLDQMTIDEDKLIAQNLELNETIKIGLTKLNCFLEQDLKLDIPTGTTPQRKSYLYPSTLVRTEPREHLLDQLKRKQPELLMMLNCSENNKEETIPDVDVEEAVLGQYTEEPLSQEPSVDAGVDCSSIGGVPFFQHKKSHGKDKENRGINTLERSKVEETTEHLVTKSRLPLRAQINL
Description: (§1) The similarity decreases to 56% in the loop 5 binding cleft alone (residues 422–432; Figure 1A). Given the high degree of similarity between the proteins, and the potential for selective binding in the loop 5 cleft, the chemogenomics principle that similar proteins bind similar ligands was applied to HSET and KSP, and an in silico model for HSET binding was developed based on nearly 500 existing inhibitors of KSP in the ChEMBL database (see Experimental Procedures for details; [Klabunde, 2007]). Using the model parameters, we selected 200 compounds (in silico) from 20 million possibilities and further triaged them into 50 ligands that scored highest in the bioactivity model. We acquired and tested these ligands for in vitro activity using an ADP-Glo enzymatic assay (see Experimental Procedures for details; Figure 1B).
(§2) The protocol was optimized for use with full-length, N-terminal, 6His-tagged HSET and KSP, and measured the MT-stimulated activity of the proteins. Inhibition of the […] of HSET/KSP was observed spectrophotometrically by coupling the hydrolysis of ATP to oxidation of NADH via pyruvate kinase/lactate dehydrogenase reactions. The assay was initiated by […] an assay mixture containing the following components (final concentration): 6 nM protein, 0.07 mg/ml MTs (University Biologicals), […], 2 mM ATP, 2.7 mM MgCI, 1 mM phospho(enol)-pyruvate, 0.2 mM NADH, 50 μg/ml lactate dehydrogenase, 100 μg/ml pyruvate kinase, and various concentrations of inhibitor all in 50 mM Na PIPES (pH 6.8) at 37°C. The ADP-Glo detection assay (Promega) was performed as described in the manufacturer’s instructions. All compound additions were performed using a multidrop BioMek Nxp (Beckman Coulter). Plates were read using a Pherastar microplate reader (BMG Labtech).

[2] = target: T2, full-length, N-terminal, 6His-tagged human HSET (Homo sapiens, UniProt Q9BW19); assay: as above; assay type: biochemical; conditions: for reduction of HSET ATPase function: first-pass enzymatic assay, at 100 μM, n = 3
T2 construct: The protocol was optimized for use with full-length, N-terminal, 6His-tagged HSET and KSP; made in house; host or cells: Sf9 insect cells (baculovirus, pFastBac1)
T2 sequence (Q9BW19 1-673): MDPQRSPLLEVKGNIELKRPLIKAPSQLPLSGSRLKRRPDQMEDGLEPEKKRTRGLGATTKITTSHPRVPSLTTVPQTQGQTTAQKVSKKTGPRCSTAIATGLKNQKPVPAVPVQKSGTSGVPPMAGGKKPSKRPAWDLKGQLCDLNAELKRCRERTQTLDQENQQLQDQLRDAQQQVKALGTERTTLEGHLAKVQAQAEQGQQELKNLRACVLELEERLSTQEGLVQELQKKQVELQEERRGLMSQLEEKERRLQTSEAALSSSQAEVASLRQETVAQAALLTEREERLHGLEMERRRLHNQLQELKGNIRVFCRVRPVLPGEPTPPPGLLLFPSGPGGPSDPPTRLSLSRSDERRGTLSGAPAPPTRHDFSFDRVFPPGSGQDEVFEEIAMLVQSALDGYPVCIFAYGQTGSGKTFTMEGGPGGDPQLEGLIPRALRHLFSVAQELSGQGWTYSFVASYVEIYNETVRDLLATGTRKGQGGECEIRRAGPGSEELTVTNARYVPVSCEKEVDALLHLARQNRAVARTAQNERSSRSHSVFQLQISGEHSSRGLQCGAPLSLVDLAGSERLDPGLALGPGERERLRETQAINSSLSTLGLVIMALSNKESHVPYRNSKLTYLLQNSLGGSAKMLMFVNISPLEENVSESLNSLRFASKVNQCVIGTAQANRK
Description: as §1, §2

[3] = tested on: HeLa cells; assay: Time-lapse video microscopy, mitotic duration, arrest and exit; assay type: cell-based, human; conditions: 200 μM CW069, 100 μM monastrol
Experimental: HSET is known to antagonize the activity of the related kinesin, KSP, during spindle formation ([Mountain et al., 1999]). Therefore, we used time-lapse video microscopy to investigate whether CW069-treated cells transit mitosis with normal kinetics, and whether the characteristic mitotic arrest induced by inhibition of KSP ([Mayer et al., 1999]) could be suppressed by cotreatment with CW069. To this end, HeLa cells were treated with either DMSO control (0.2%), 200 μM CW069, 100 μM monastrol, or CW069+monastrol for 60 min before being imaged every 5 min for a further 360 min. Mitotic duration (MD) was defined as the period of time between when the cells began to round up and the onset of anaphase. No statistical difference was recorded between control cells and cells treated with 200 μM CW069 (MD 55 ± 7 and 53 ± 6 min, respectively, Figures 6A, 6B, and S7). […] This effect was reversed to a large extent by cotreatment of CW069 with monastrol. […] This is consistent with observations previously reported for KSP-depleted cells ([Mountain et al., 1999]). […] Cells were synchronized in G2-M by incubation at 37°C and 5% CO2 for 24 hr with 9 μM of the CDK1 inhibitor RO-3306 (Merck). Cells were released by removal of the RO-3306 and four washings of 10 min each, at 37°C, with prewarmed culture media + 10% FBS. N1E-115 cells were transfected with siRNA (Supplemental Experimental Procedures) and imaged from 6 hr after transfection. Some RO-3306-synchronized cells were released with 200 μM CW069, 100 μM monastrol, or 0.2% DMSO, and imaging started immediately or 1 hr after treatment. Imaging was carried out for 24 hr, or for 4 hr in the case of the CW069/monastrol cotreatment. Imaging was conducted every 5 min in a humidified chamber with 37°C and 5% CO2, using a Nikon Eclipse TE2000-E microscope, and analyzed with NIS-Elements software (Nikon, Tokyo, Japan). The morphology of cells in mitosis and the mitotic fate (bipolar division, multipolar division, or cell death) were analyzed.

[4] = tested on: HeLa cells; assay: Immunofluorescence after time-lapse imaging, monopolar/bipolar spindles; assay type: cell-based, human; conditions: 200 μM CW069, 100 μM monastrol, 40 mitotic cells
Description: Immediately after time-lapse imaging, cells were fixed and antibodies against α-tubulin, CDK5RAP2, and DAPI were employed to visualize MTs, centrosomes, and DNA, respectively. […] Control HeLa cells formed mainly bipolar spindles (92%), with two centrosomes positioned at the spindle poles on either side of the metaphase plate (Figure 6C; Table 1). Similar numbers of bipolar spindles were formed in CW069-treated cells (95%; Figure 6C; Table 1). Monastrol-treated cells almost exclusively formed monopolar spindles (97%) with one pole surrounded by DNA ([Luo et al., 2004]; Figure 6C; Table 1). Normal bipolar spindle formation was indeed restored for many cells (45%) when the HSET inhibitor CW069 was administered along with the KSP inhibitor monastrol (Figure 6C; Table 1).
Cells were plated at a seeding density of 1.2 × 10^4 cells per well in Ibidi eight-well chamber slides, incubated for 24 hr, and then treated with compound for 3 hr. Prewarmed 4% paraformaldehyde in PBS was then added to each well to fix the cells before washing with PBS. Permeabilization and blocking was performed by incubating the slides with 1% BSA, 0.3% Triton X-100, 5% goat serum in PBS (PBS/B/0.3%T+5%GS) for 1 hr while shaking them at room temperature (RT). The slides were incubated with primary antibody solutions (mouse monoclonal anti-α-Tubulin [catalog number T9026; Sigma-Aldrich] and rabbit anti-CDK5RAP2 [catalog number A300-554A; Bethyl Laboratories]) at 4°C for 16 hr. The slides were washed four times with PBS/B/0.3%T+5%GS and then incubated with secondary antibody solutions (anti-rabbit IgG Alexa Fluor 488 [catalog number A21206] and anti-mouse IgG Alexa Fluor 647 [catalog number A20990]; Invitrogen) and DAPI (catalog number D3571; Invitrogen) in deionized water (300 nM) in the dark at RT for 1 hr. After four washes with PBS/B/0.3%T+5%GS, the solution was replaced with PBS and the slides were stored at 4°C until imaging was performed. Images were gathered with the use of an ICys Research Imaging Cytometer (CompuCyte) or a tandem confocal microscope (Leica).

[5] = >200 cells that entered mitosis >60 min after treatment

O=C(O)c1cc(Cl)c(Cl)cc1C(=O)N(Cc1ccccc1)Cc1ccccc1 [compound 3]
IC50 [1]: 29 ± 2 µM | IC50 ([2]; concentrations up to 250 μM, mean ± SD): 30 ± 4 µM | selectivity for HSET over KSP ([2]; from IC50 values, HSET vs KSP): does not possess selectivity for HSET

CCOC(=O)C1=C(C)NC(=S)NC1c1cccc(O)c1 (stereo not shown) [monastrol, reference compound]
Mitotic Arrest (%) [3, 5]: 93% | Mitotic Exit (%) [3, 5]: 7% | Mitotic duration (MD) ([3]; rounding up to anaphase onset, cells transiting mitosis): 179 ± 68 min | Bipolar Spindle (%) [4]: 3% | Monopolar Spindle (%) [4]: 97%

O=C(O)c1cc(I)ccc1NC1C(=O)OC(c2ccccc2)C1c1ccccc1 (stereo not shown) [compound 2]
reduction of HSET ATPase function [2]: > 60%

O=C(c1ccc(N2CCCc3ccccc32)s1)n1ccnc1 [compound 1]
reduction of HSET ATPase function [2]: > 60%
